Experimental data from US20250161241A1, “CYSTEAMIDES, THERAPEUTIC COMPOSITIONS THEREOF, AND RELATED METHODS” (Boyce Thompson Institute for Plant Research, Inc., priority 2022, published 2025).

Key:
[1] = test system: gut Tregs (colon tissue); experiment: colon (gut) Treg levels in mice after oral gavage (flow cytometry); format: in vivo, mouse; settings: SPF mice, oral gavage 50 mg/kg/day, 14 days, vs vehicle, FIG. 66 bottom row
Protocol: (§1) Butyrate-MCY (dissolved in water) was delivered by oral gavage at a rate of 50 mg/kg body weight per day in a volume of 100 μL for two weeks.
Mouse colons were removed, cleaned of attached fat tissues, and washed in ice-cold PBS (Sigma-Aldrich). They were then opened longitudinally and washed again in ice-cold PBS. Dissociation of epithelial cells was performed by shaking at 37° C. in HBSS (Sigma-Aldrich) containing 10 mM HEPES, 10 mM EDTA (Thermo Fisher Scientific) and 2 mM dithiothreitol (DTT) two times for 15 min each. After each step, samples were vortexed, and the supernatant containing the epithelial fraction was removed. […]
(§2) All antibodies above were used at 1:200 dilutions, except FoxP3 were used at 1:100 dilutions. Stained cells were analyzed on a 5 laser, 18 color custom-configuration BD LSRFortessa (BD). Data were collected using BD FACSDiva version 9.0 and analyzed using FlowJo (version 10.7.1, Tree Star).
For functional evaluation, the previously unreported MCY conjugates of butyrate were prioritized, given that their microbiota-dependent production is conserved in humans and considering that the corresponding parent metabolite, butyrate, serves important roles in immune homeostasis. […] FIG. 66 (top row) provides representative flow cytometry plots of Tregs and quantification of Tregs as percentage of all CD4+ T cells in brain tissue from vehicle or butyrate-MCY treated mice. […]

[2] = test system: brain-resident Tregs; experiment: brain-resident Treg levels in mice after oral gavage (flow cytometry, i.v. CD45 labeling); format: in vivo, mouse; settings: SPF mice, oral gavage 50 mg/kg/day, 14 days, vs vehicle; brain tissue; FIG. 66 top row
Protocol: as §1
For isolation of brain leukocyte populations, mice were euthanized with CO2 and perfused through the left ventricle with 20 mL PBS. The whole brain was removed and placed in 2.5 mL digestion buffer (PBS, 5% FCS, 1 mM HEPES) before being finely chopped. Collagenase D (Roche, 400 U) was added to the mixture, which was then incubated at 37° C. for 30 min before adding 50 μL 0.5 M EDTA, followed by a 5-min incubation. […]
as §2
For functional evaluation, the previously unreported MCY conjugates of butyrate were prioritized, given that their microbiota-dependent production is conserved in humans and considering that the corresponding parent metabolite, butyrate, serves important roles in immune homeostasis. […] SPF mice were supplemented via oral gavage with butyrate-MCY (50 mg/kg/day, 100 μL/day, 14 days), which was identified in the brain and serum metabolomes and the levels of brain-resident Tregs was measured. […]

CCCC(=O)NCCSC [butyrate-MCY]
percentage of gut Tregs amongst CD4+ T cells [1]: significantly decreased
percentage of brain-resident Tregs amongst CD4+ T cells [2]: significantly decreased
